Data from the NIST ThermoML archive (doi:10.1021/je900210h).

Settings: Fluid (supercritical or subcritical phases), Coaxial cylinder method

FCC(F)(F)F [1,1,1,2-tetrafluoroethane]
Settings	thermal conductivity [W/m/K]
376.41 K, 4184 kPa	0.0684
376.42 K, 3872 kPa	0.0315
376.44 K, 3783 kPa	0.0303
376.44 K, 4178 kPa	0.0661
376.44 K, 4354 kPa	0.0663
376.46 K, 3783 kPa	0.0297
376.48 K, 3675 kPa	0.0288
376.48 K, 4174 kPa	0.0639
376.5 K, 3593 kPa	0.0281
376.51 K, 2527 kPa	0.0229
376.51 K, 3504 kPa	0.0275
376.51 K, 4168 kPa	0.0618
376.52 K, 4404 kPa	0.0612
376.53 K, 3468 kPa	0.0269
376.54 K, 4470 kPa	0.059
376.54 K, 4580 kPa	0.0586
376.55 K, 3302 kPa	0.0263
376.55 K, 4165 kPa	0.0598
376.56 K, 3210 kPa	0.0257
376.57 K, 4451 kPa	0.0587
376.58 K, 4158 kPa	0.0579
376.59 K, 3210 kPa	0.0248
376.6 K, 3210 kPa	0.0246
376.61 K, 3210 kPa	0.0244
376.61 K, 4150 kPa	0.0562
376.65 K, 4147 kPa	0.0545
376.68 K, 4141 kPa	0.0524
376.68 K, 4680 kPa	0.0583
376.69 K, 4140 kPa	0.0427
376.73 K, 4100 kPa	0.0395
376.78 K, 4040 kPa	0.0364
376.81 K, 3990 kPa	0.0346
376.82 K, 4117 kPa	0.047
376.82 K, 4820 kPa	0.0577
376.82 K, 4860 kPa	0.0575
376.87 K, 3880 kPa	0.0318
376.87 K, 4101 kPa	0.0452
376.87 K, 4504 kPa	0.0571
376.89 K, 4548 kPa	0.0562
376.9 K, 3800 kPa	0.0304
376.92 K, 3740 kPa	0.0295
376.95 K, 3650 kPa	0.0285
376.96 K, 2027 kPa	0.0218
376.98 K, 3510 kPa	0.0274
377.01 K, 4289 kPa	0.072
377.01 K, 4294 kPa	0.0724
377.01 K, 4307 kPa	0.0724
377.01 K, 4309 kPa	0.072
377.01 K, 4312 kPa	0.0717
377.02 K, 4322 kPa	0.0706
377.02 K, 4332 kPa	0.0691
377.03 K, 4343 kPa	0.0674
377.04 K, 4356 kPa	0.0661
377.05 K, 4380 kPa	0.0636
377.05 K, 4384 kPa	0.0634
377.06 K, 4397 kPa	0.0625
377.06 K, 4417 kPa	0.0617
377.07 K, 4439 kPa	0.0606
377.07 K, 4473 kPa	0.06
377.08 K, 4495 kPa	0.0595
377.08 K, 4538 kPa	0.0587
377.17 K, 4275 kPa	0.0671
377.18 K, 4270 kPa	0.0648
377.19 K, 4266 kPa	0.063
377.24 K, 4249 kPa	0.0555
377.26 K, 4241 kPa	0.0529
377.27 K, 4235 kPa	0.0513
377.29 K, 4226 kPa	0.0494
377.32 K, 4211 kPa	0.0466
377.36 K, 4613 kPa	0.0583
377.36 K, 4653 kPa	0.0578
377.36 K, 4697 kPa	0.0578
377.36 K, 4760 kPa	0.0576
377.37 K, 4836 kPa	0.0569
377.37 K, 4907 kPa	0.0562
377.51 K, 4164 kPa	0.0415
377.55 K, 4126 kPa	0.039
377.58 K, 4079 kPa	0.0366
377.73 K, 4701 kPa	0.055
377.83 K, 4369 kPa	0.0678
377.83 K, 4381 kPa	0.0681
377.83 K, 4390 kPa	0.0681
377.83 K, 4400 kPa	0.0678
377.84 K, 4360 kPa	0.0668
377.84 K, 4411 kPa	0.0668
377.84 K, 4420 kPa	0.0658
377.85 K, 4351 kPa	0.0652
377.85 K, 4432 kPa	0.0652
377.85 K, 4441 kPa	0.064
377.86 K, 4451 kPa	0.0631
377.86 K, 4460 kPa	0.0623
377.86 K, 4997 kPa	0.0548
